Data published in US10449202B2, “Rationale-based design of a targeted therapy for cancer” (priority 2013, dated 2019).
pIC50: −log10 of the molar value.

Columns and labels:
SRC-3 [1] = experiment: Western blot of SRC-3 protein expression in prostate cancer cell lines; assay type: cell-based; conditions: 1 μM, 6 hours
Description: (§1) Ponceau S was used to stain proteins.

SRC-3 [2] = experiment: Subcellular fractionation and Western blot of SRC-3 in nucleus and cytoplasm; assay type: cell-based; conditions: 1000 nM, 6 hours
Description: as §1
(§2) Nuclear and cytosolic fractions were obtained and analyzed by western blot. Antibodies used include SRC-3, PRK, tubulin, histone-H3, and actin.

PRK-1 = experiment: Subcellular fractionation and Western blot of PRK-1 in nucleus and cytoplasm; assay type: cell-based; conditions: 6 hours
Description: as §1, §2

prostate cancer = conditions: Phase 2 human clinical trial, prostate cancer patients; cited from earlier work
PKC = conditions: read-out: IC50 PKC; cited from earlier work
gastric cancer cells = experiment: MTT cell viability assay, gastric cancer cells; conditions: 10-3000 nM, 48 hours, AGS, MKN-45, Hs746T, NCI-N87
prostate cancer cells = experiment: MTT cell viability assay, prostate cancer cells; conditions: 10-3000 nM, 48 hours, PC3, DU145, LNCaP
PRK1 = experiment: Western blot of PRK1 protein expression in prostate cancer cell lines; conditions: LNCaP, PC3 and DU145 cells (any of the tested cell lines), 1 μM, 6 hours
DEK = experiment: Western blot of DEK protein levels in prostate, breast and gastric cancer cells, 24 hours, two doses; conditions: gastric cancer cells (MKN-45 and NCI-N87)
SRC3 = experiment: Western blot of SRC3 protein levels in prostate, breast and gastric cancer cells, 24 hours, two doses; conditions: for SRC3 protein levels: two doses

C[C@]12O[C@H](C[C@]1(O)CO)n1c3ccccc3c3c4c(c5c6ccccc6n2c5c31)CNC4=O [lestaurtinib]
SRC-3 protein expression level (SRC-3 [1]; DU145 cells): not significantly altered
SRC-3 protein expression level (SRC-3 [1]; LNCaP cells): profound decrease
SRC-3 protein expression level (SRC-3 [1]; PC3 cells): not significantly altered
reduction in cytoplasmic SRC-3, LNCaP compared to PC3 or DU145 (SRC-3 [2]; LNCaP cells): much more dramatic
nuclear SRC-3 protein levels (SRC-3 [2]; LNCaP, DU145 or PC3 cells): did not caused a reduction
SRC-3 protein in the cytoplasm (SRC-3 [2]; all three cell lines (LNCaP, PC3, DU145)): reduced
cytoplasmic PRK-1 levels (PRK-1; LNCaP, PC3, DU145, 1000 nM): unaltered
nuclear PRK-1 protein levels (PRK-1; all three cell lines (LNCaP, PC3, DU145), 1000 nM): increased
primary clinical endpoint of reduced PSA levels (prostate cancer): failed to achieve the primary clinical endpoint of reduced PSA levels
pIC50 (PKC): 6.65
viability of gastric cancer cells (gastric cancer cells): effective in reducing viability
viability of prostate cancer cells (prostate cancer cells): effective in reducing viability
PRK1 protein expression level (PRK1): not significantly altered
DEK levels (DEK): did not change
SRC3 protein levels (SRC3; MCF7 breast cancer cells): most profound dose-dependent decrease
SRC3 expression levels (SRC3; MKN-45 gastric cancer cells, higher dose): showed a decrease
SRC3 protein levels (SRC3; ZR75-1 breast cancer cells): no obvious change
